Results on two compounds are retold here after patent publication US20130116148A1, “LIVER DISEASE MARKER, METHOD AND APPARATUS FOR MEASURING THE SAME, AND METHOD FOR ASSAYING PHARMACEUTICAL PREPARATION” (KEIO UNIVERSITY, priority 2010, published 2013).

One series relates to glutathione. Particulars: mouse, large quantities of APAP, cited from earlier work.
In series [1] the test system is glutathione-biosynthesis pathway. Put plainly: Administration of GCS inhibitor BSO and GCS activator DEM to mice; metabolites in the livers by CE-TOFMS. The format is in vivo. Particulars: mouse liver. On the procedure:
Male mice were fasted overnight and anesthetized by an intraperitoneal injection of pentobarbital sodium (60 mg/Kg of body weight). Then, the mice were intraperitoneally injected with BSO, which is aγ-glutamyl cysteine synthase (GCS) inhibitor, and diethylmaleate (DEM), which is an electrophile (GCS activator), both at a dose of 4 mmol/kg of body weight (888 mg of BSO, 688 mg of DEM). The mouse as a healthy subject was intraperitoneally injected with physiological saline. Liver specimens (about 300 mg) were excised from the mice 1 hour after administration (5 times each).
The liver specimens (about 300 mg) excised from the mice were immediately placed in 1 ml of methanol containing an internal standard substance and were homogenized to inactivate an enzyme, thereby stopping enhancement of metabolism. After 500 μl of pure water was added to the mixture, 300 μl of solution was taken out. To this solution, 200 μl of chloroform was added. After thorough stirring, the solution was further centrifuged at 15000 rpm for 15 minutes at 4° C. After allowing to stand, 300 μl of separated water-methanol phase was passed through a 5 kDa molecular weight cutoff filter for centrifugal ultrafiltration to deproteinize it. […]
The method described below was used to confirm that the detected γ-Glu-X peptides and γ-Glu-X-Gly peptides were synthesized in a glutathione-biosynthesis pathway.

Series [2] has the same test system. Description: Administration of BSO and DEM to mice; γ-Glu-X and γ-Glu-X-Gly peptides in the murine serum. Type of series: in vivo. Particulars: mouse serum, compared to the normal state. The procedure:
Male mice were fasted overnight and anesthetized by an intraperitoneal injection of pentobarbital sodium (60 mg/Kg of body weight). Then, the mice were intraperitoneally injected with BSO, which is aγ-glutamyl cysteine synthase (GCS) inhibitor, and diethylmaleate (DEM), which is an electrophile (GCS activator), both at a dose of 4 mmol/kg of body weight (888 mg of BSO, 688 mg of DEM). The mouse as a healthy subject was intraperitoneally injected with physiological saline. Liver specimens (about 300 mg) were excised from the mice 1 hour after administration (5 times each). On the other hand, regarding the substances in the murine serum, γ-Glu-X peptides and γ-Glu-X-Gly peptides that were decreased by administration of BSO and were increased by administration of an electronic substance, DEM, compared to the normal state were only γ-[…]AB and ophthalmic acid (γ-[…]AB-Gly) (FIG. 22). Therefore, it is expected that, in the case of a mouse, only γ-[…]AB and ophthalmic acid are increased in the blood when glutathione is decreased because of the oxidative stress caused by electrophiles or the like.

With `CC(=O)Nc1ccc(O)cc1` [APAP, Acetaminophen], the ophthalmic acid entry with glutathione (in inverse proportion to the glutathione level) is listed as “increased rapidly”. In the series with glutathione, the glutathione result was “decreased”.

`CCCCS(=N)(=O)CCC(N)C(=O)O` (centres unmarked) [BSO, buthionine sulfoximine]: the “amount of glutathione in the livers” value in series [1] (1 hour after i.p. 4 mmol/kg, compared to the healthy mouse) is “decreased rapidly”. Besides, the “γ-Glu-X and γ-Glu-X-Gly peptidic substances in the liver other than γ-Glu-Cys, GSH and γ-Glu-Ser-Gly” value in series [1] (compared to the normal) was “decreased”. Besides, the “γ-Glu-2AB and ophthalmic acid (γ-Glu-2AB-Gly) in the murine serum” value in series [2] is listed as “decreased”.
